# Article PMC8555866 (Nature chemical biology, 2021)
# Where a name gives a salt, the structure may show the parent alone.
# Legend:
# [1] = molecular target: wildtype Keap1 (tag-free) (Homo sapiens, UniProt Q14145); test: Keap1 tracer saturation binding with wildtype Keap1; details: fixed Cora-1-KL9 (5 nM) and wildtype Keap1, one-site binding model
# Keap1 (tag-free) [2] = molecular target: T1, Keap1 (tag-free) (Homo sapiens, UniProt Q14145); test: Assay-1: inhibitor dose response, full length Keap1; format: binding; details: 5 nM Keap1, 3.5 nM each KL9 tracer, 4 h
# Keap1 (tag-free) [3] = molecular target: T1, Keap1 (tag-free); test: Assay-2: inhibitor dose response, full length Keap1; format: binding; details: for activity in Assay-2 (in words): 5 nM Cora-1-KL9, 150 nM CDDO-FITC, 5 nM Keap1
# [4] = molecular target: HDAC1-HT in HEK293T cells (Homo sapiens, UniProt Q13547); format: cell-based; details: Cora-2-Halo labeled HEK293T cells expressing HDAC1-HT, 4 h at 37°C
# Chain of HDAC1-HT in HEK293T cells (Q13547 whole entry): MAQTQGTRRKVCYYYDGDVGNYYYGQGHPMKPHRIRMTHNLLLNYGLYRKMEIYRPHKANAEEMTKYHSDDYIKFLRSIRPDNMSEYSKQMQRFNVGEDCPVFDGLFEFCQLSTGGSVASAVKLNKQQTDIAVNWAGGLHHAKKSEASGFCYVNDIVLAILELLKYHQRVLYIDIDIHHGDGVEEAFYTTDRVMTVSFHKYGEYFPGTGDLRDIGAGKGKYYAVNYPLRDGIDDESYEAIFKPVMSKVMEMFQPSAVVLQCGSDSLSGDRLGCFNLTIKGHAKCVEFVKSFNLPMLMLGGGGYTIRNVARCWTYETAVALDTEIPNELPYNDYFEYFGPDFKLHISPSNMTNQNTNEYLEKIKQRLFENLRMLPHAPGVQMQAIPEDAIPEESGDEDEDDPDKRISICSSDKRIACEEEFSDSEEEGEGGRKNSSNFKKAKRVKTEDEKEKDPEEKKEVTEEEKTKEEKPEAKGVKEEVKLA
# T1 sequence (Q14145 whole entry): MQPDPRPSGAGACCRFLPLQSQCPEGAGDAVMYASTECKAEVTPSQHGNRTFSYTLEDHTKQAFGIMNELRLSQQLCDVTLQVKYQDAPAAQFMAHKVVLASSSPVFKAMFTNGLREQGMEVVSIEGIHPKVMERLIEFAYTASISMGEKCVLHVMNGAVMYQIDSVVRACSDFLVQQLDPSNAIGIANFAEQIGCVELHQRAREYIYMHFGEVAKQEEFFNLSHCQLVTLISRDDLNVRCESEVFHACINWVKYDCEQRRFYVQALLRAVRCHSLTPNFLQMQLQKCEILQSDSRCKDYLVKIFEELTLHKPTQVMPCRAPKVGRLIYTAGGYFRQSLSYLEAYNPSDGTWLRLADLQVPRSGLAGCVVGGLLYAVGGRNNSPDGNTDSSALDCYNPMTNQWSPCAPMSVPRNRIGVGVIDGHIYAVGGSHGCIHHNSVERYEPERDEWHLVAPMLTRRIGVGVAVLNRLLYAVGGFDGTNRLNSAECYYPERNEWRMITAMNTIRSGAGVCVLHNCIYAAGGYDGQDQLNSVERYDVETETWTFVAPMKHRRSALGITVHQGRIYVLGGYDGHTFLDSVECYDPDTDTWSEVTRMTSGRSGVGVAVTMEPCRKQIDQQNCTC
# Chain of wildtype Keap1 (tag-free) (Q14145 whole entry): as above
smiles,measurement,setting,value
CC1(C)CC[C@]2(C(=O)NCCCOCCOCCOCCCNC(=S)Nc3ccc(-c4c5ccc(=O)cc-5oc5cc(O)ccc45)c(C(=O)O)c3)CC[C@]3(C)[C@H](C(=O)C=C4[C@@]5(C)C=C(C#N)C(=O)C(C)(C)[C@@H]5CC[C@]43C)[C@@H]2C1 [CDDO-FITC],Kd,[1],164 ± 37.1 nM
Cc1sc2c(c1C)C(c1ccc(Cl)cc1)=NC(CC(=O)NCCCOCCOCCOCCCNC(=O)[C@]13CCC(C)(C)C[C@H]1[C@H]1C(=O)C=C4[C@@]5(C)C=C(C#N)C(=O)C(C)(C)[C@@H]5CC[C@@]4(C)[C@]1(C)CC3)c1nnc(C)n1-2 (some centres unmarked) [CDDO-JQ1],affinity in Assay-1 (no appreciable affinity below),Keap1 (tag-free) [2],> 100 µM
same,fold less potent than CDDO,Keap1 (tag-free) [3]; Assay-2,> 500 fold
"COC(=O)[C@]12CCC(C)(C)C[C@H]1[C@H]1C(=O)C=C3[C@@]4(C)C=C(C#N)C(=O)C(C)(C)[C@@H]4CC[C@@]3(C)[C@]1(C)CC2 [CDDO-Me, bardoxolone methyl]",affinity in Assay-1 (no appreciable affinity below),Keap1 (tag-free) [2],> 100 µM
same,activity in Assay-2 (in words),Keap1 (tag-free) [3],most potent competitors of CDDO-FITC
CC1(C)CC[C@]2(C(=O)O)CC[C@]3(C)[C@H](C(=O)C=C4[C@@]5(C)C=C(C#N)C(=O)C(C)(C)[C@@H]5CC[C@]43C)[C@@H]2C1 [CDDO],activity in Assay-1 (in words),Keap1 (tag-free) [2],micromolar activity
same,activity in Assay-2 (in words),Keap1 (tag-free) [3],most potent competitors of CDDO-FITC
"COC1=CC(=O)C(O)=C/C1=C\C=C\c1ccccc1 [OBT, obtusaquinone]",activity in Assay-1 (in words),Keap1 (tag-free) [2],micromolar activity
O=C(CCCCCCC(=O)Nc1ccc(CNC(=O)c2ccc(C(=O)O)c(C3=c4cc5c6c(c4Oc4c3cc3c7c4CCCN7CCCC3)CCC[N+]=6CCCC5)c2)cc1)NO [SAHA-NCT],TR-FRET signal in live cells / cell permeability (in words),[4],specific and ligand concentration-dependent TR-FRET signal
CC1=C(O)C(=O)C=C2C1=CC=C1[C@@]2(C)CC[C@@]2(C)[C@@H]3C[C@](C)(C(=O)O)CC[C@]3(C)CC[C@]12C [celastrol],activity in Assay-1 (in words),Keap1 (tag-free) [2],micromolar activity
COC(=O)/C=C/C(=O)OC [dimethyl fumarate],affinity in Assay-1 (no appreciable affinity below),Keap1 (tag-free) [2],> 100 µM
